Measured values taken from patent US11547761B1, “Antibody adjuvant conjugates” (The Board of Trustees of the Leland Stanford Junior …, priority 2016, dated 2023).
“Also recorded” adds a separate entry of the source.

Tests used:
Type in all cases: cell-based
[1] = tested on: human antigen presenting cells; experiment: Stimulation of human antigen presenting cells with free adjuvants, flow cytometry; details: peripheral blood APCs, 10-fold serial dilutions, 18 hours, 37° C.
Method: Peripheral blood antigen presenting cells (APCs) were stimulated with 10-fold serial dilutions of R848, Compound 2 or a control TLR agonist at 37° C. After 18 hours, cells were analyzed via flow cytometry. Data are presented as median fluorescence intensity of each indicated marker; n=3.
To determine if adjuvant functionalization impacted the capacity of Compound 2 or Compound 1 to elicit immune activation, human antigen presenting cells were stimulated with 10-fold serial dilutions of R848, Compound 2, Compound 1 or a control TLR agonist, CL307, for 18 hours prior to analysis via flow cytometry.

[2] = molecular target: T1, human TLR7 (Homo sapiens, UniProt Q9NYK1); experiment: HEK293 TLR reporter (secreted embryonic alkaline phosphatase) assay; details: 2-fold serial dilutions, 12 hours at 37° C.
T1 construct: expressed in transfected cells; host or cells: HEK293
T1 sequence (Q9NYK1 27-1049): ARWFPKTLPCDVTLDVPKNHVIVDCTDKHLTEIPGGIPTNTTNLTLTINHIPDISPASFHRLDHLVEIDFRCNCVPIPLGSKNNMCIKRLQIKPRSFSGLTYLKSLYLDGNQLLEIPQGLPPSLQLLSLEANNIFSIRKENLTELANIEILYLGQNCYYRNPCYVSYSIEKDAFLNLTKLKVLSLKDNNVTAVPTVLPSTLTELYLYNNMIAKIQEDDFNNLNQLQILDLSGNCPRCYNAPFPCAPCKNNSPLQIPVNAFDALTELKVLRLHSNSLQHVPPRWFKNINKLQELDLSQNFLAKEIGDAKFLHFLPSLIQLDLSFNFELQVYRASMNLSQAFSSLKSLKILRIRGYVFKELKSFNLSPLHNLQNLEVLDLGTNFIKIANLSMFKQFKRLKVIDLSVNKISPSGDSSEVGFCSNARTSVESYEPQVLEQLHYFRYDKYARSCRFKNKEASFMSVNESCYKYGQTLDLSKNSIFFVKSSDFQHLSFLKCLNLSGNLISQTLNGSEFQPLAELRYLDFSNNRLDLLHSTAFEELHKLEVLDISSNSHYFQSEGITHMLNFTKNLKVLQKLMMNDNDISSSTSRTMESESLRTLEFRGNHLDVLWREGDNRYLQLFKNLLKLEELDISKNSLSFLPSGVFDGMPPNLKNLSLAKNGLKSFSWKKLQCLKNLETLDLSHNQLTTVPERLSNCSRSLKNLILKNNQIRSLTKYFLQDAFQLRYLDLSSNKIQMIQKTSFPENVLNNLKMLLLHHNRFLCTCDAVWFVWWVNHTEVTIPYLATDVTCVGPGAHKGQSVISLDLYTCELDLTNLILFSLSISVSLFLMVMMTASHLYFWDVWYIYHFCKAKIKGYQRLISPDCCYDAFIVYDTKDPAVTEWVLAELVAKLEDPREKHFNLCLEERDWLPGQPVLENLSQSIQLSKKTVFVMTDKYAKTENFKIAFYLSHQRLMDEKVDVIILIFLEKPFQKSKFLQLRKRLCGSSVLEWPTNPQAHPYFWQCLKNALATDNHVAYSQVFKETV
Method: (§1) HEK293 cells were co-transfected with human TLR7 or TLR8 (top two panels) or murine TLR7 (bottom panel) and an inducible secreted embryonic alkaline phosphatase reporter gene under the control of the IFN-β minimal promoter fused to NF-κB and AP-1 binding sites. Cells were subsequently incubated with 2-fold serial dilutions of the indicated adjuvant for 12 hours at 37° C. Activity was measured by spectrophotometry (OD 650 nm) following addition of alkaline phosphatase substrate.
(§2) Next, the capacity of each functionalized TLR agonist to activate human TLR7 or TLR8 was directly assayed. HEK293 cells were co-transfected with human TLR7 or TLR8 or murine TLR7 and an inducible secreted embryonic alkaline phosphatase reporter gene under the control of the IFN-β minimal promoter fused to NF-κB and AP-1 binding sites. Cells were subsequently incubated with 2-fold serial dilutions of each the indicated adjuvants for 12 hours at 37 C in the presence of an alkaline phosphatase substrate. Activity was measured by spectrophotometry (OD 650 nm).

[3] = molecular target: T2, murine TLR7 (Mus musculus, UniProt P58681); experiment: as above; details: 2-fold serial dilutions, 12 hours at 37° C.
T2 construct: expressed in transfected cells; host or cells: HEK293
T2 sequence (P58681 27-1050): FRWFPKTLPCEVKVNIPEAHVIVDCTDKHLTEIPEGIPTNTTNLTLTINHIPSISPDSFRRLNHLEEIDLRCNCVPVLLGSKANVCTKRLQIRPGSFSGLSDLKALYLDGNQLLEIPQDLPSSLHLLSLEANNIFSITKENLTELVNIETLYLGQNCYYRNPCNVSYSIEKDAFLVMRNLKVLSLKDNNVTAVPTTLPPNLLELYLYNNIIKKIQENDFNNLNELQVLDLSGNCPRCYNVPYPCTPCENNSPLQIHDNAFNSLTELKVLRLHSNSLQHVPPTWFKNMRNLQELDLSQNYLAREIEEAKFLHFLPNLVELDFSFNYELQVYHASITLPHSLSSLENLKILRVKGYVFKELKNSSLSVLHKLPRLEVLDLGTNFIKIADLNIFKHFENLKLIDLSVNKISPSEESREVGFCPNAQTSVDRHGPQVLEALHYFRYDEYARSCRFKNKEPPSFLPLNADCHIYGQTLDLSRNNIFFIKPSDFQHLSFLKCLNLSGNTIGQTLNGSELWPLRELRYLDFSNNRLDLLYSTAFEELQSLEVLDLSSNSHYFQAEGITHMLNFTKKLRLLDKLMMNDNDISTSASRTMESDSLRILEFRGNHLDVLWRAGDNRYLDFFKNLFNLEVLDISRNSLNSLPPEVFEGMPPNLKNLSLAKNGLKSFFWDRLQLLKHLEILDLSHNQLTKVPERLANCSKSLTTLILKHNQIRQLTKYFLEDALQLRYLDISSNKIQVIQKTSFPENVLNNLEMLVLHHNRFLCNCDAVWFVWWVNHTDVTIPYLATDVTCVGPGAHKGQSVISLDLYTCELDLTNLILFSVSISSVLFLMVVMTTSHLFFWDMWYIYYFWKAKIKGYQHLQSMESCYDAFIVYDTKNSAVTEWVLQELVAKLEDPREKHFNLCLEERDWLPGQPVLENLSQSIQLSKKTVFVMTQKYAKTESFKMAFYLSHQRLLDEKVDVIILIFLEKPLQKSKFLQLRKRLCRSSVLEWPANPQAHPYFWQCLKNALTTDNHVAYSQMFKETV
Method: as §1, §2

[4] = molecular target: T3, human TLR8 (Homo sapiens, UniProt Q9NR97); experiment: as above; details: 2-fold serial dilutions, 12 hours at 37° C.
T3 construct: expressed in transfected cells; host or cells: HEK293
T3 sequence (Q9NR97 27-1041): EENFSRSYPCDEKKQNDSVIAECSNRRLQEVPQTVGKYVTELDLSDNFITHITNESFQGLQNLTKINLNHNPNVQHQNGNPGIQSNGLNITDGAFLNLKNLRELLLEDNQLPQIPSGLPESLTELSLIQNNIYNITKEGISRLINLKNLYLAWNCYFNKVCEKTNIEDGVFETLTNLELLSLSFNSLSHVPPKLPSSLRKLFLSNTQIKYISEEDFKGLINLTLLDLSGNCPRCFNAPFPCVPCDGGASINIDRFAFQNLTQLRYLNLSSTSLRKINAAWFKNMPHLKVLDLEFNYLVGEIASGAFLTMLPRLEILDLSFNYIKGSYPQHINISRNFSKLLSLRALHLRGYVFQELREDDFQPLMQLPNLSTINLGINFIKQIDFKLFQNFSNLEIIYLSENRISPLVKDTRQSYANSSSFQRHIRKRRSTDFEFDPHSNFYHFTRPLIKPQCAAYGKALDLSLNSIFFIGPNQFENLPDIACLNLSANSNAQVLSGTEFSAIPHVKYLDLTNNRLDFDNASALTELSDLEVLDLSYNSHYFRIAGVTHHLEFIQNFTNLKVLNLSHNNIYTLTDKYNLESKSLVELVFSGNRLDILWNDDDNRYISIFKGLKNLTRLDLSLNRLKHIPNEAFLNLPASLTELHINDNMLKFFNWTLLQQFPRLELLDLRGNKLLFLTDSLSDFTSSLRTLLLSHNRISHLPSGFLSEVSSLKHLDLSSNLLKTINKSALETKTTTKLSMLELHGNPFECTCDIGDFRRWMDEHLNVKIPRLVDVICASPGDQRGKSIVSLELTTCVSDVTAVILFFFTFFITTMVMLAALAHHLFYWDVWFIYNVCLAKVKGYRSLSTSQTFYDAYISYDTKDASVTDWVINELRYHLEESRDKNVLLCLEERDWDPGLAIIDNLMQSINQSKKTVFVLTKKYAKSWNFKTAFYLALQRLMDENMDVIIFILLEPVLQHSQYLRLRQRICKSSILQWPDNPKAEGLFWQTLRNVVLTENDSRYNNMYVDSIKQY
Method: as §1, §2

[5] = tested on: human APCs (myeloid cells); experiment: APC-tumor co-culture / myeloid cell stimulation, surface markers by flow cytometry; details: 18 hours of stimulation; compared with the corresponding unconjugated antibody unless the value names another comparator
From the text: (§3) Human antigen presenting cells (APCs) were negatively selected from human peripheral blood mononuclear cells obtained from healthy blood donors (Stanford Blood Center) by density gradient centrifugation using a RosetteSep Human Monocyte Enrichment Cocktail (Stem Cell Technologies) containing monoclonal antibodies against CD2, CD3, CD8, CD19, CD56, CD66b and CD235a. Immature APCs were subsequently purified to >97% purity via negative selection using an EasySep Human Monocyte Enrichment Kit without CD16 depletion containing monoclonal antibodies against CD2, CD3, CD19, CD20, CD56, CD66b, CD123 and CD235a.
Tumor cells were resuspended in PBS with 0.1% fetal bovine serum (FBS) at 1 to 10×10^6 cells/mL. Cells were subsequently incubated with 2 μM CFSE to yield a final concentration of 1 μM. The reaction was ended after 2 minutes via the addition of 10 mL complete medium with 10% FBS and washed once with complete medium. Cells were either fixed in 2% paraformaldehyde and washed three times with PBS or left unfixed prior to freezing the cells in 10% DMSO, 20% FBS and 70% medium.
(§4) 2×10^5 APCs were incubated with or without 6.5×10^5 autologous or allogeneic CFSE-labeled tumor cells in 96-well plates (Corning) containing IMDM medium (Gibco) supplemented with 10% fetal bovine serum, 100 U/mL penicillin, 100 μg/mL streptomycin, 2 mM L-glutamine, sodium pyruvate, non-essential amino acids, 50 μM 2-ME and, where indicated, various concentrations of anti-tumor antibody and the indicated adjuvants. Cells and cell-free supernatants were analyzed after 18 hours via flow cytometry.
as §3, with “[…]” for “CD2, CD3, CD8, CD19, CD56, CD66b”, “[…].” for “CD235a.”, “CD14, CD16, CD40, CD86, CD123,” for “CD2, CD3, CD19, CD20, CD56, CD66b, CD123”
as §4, with “antibody.” for “anti-tumor antibody and the indicated adjuvants.”
(§5) 2×10^5 APCs were incubated with or without 6.5×10^5 allogeneic CFSE-labeled tumor cells in 96-well plates (Corning) containing IMDM medium (Gibco) supplemented with 10% fetal bovine serum, 100 U/mL penicillin, 100 μg/mL streptomycin, 2 mM L-glutamine, sodium pyruvate, non-essential amino acids and, where indicated, various concentrations of unconjugated CD20 antibody, and immunoconjugates of the invention were prepared according to the examples above. Cells and cell-free supernatants were analyzed after 18 hours via flow cytometry or ELISA.

[6] = tested on: human APCs (myeloid cells); experiment: Cytokine secretion from human APCs / myeloid cells (cell free supernatants); details: 36 hours of stimulation; compared to equimolar unconjugated antibody
Method: After 18 hours, cell free supernatants were analyzed for cytokine secretion via cytokine bead arrays; n=3. P-values≤0.05 depicted by *, P-values≤0.01 depicted by **, P-values≤0.001 depicted by ***, P-values≤0.0001 depicted by ****.
as §4, with “Cells and cell-free supernatants were analyzed after 18 hours via flow cytometry.” left out
While the expression of T cell stimulatory molecules such as CD40, CD86 and HLA-DR is necessary for effective T cell activation, APCs also influence the nature of the ensuing immune response through the secretion of cytokines. Therefore, the capacity of immunoconjugates to elicit cytokine secretion in human APCs following stimulation was investigated as described above.
The capacity of these immunoconjugates to elicit cytokine secretion in human APCs following stimulation was investigated as described in Example 3 above.
as §5, with “Cells and cell-free supernatants were analyzed after 18 hours via flow cytometry or ELISA.” left out

Molecule	myeloid cell activation (median fluorescence intensity of activation markers) [1]	human TLR7 activation (OD 650 nm) [2]	murine TLR7 activation (OD 650 nm) [3]	human TLR8 activation (OD 650 nm) [4]	CD16 downregulation on myeloid cells [5]	CD40 upregulation on myeloid cells [5]	CD86 upregulation on myeloid cells [5]	IL-1β secretion from myeloid cells [6]	TNFα secretion from myeloid cells [6]	CD123 upregulation on myeloid cells [5]
CCCCc1nc2c(N)nc3ccccc3c2n1CCCCN1C(=O)C=CC1=O [Compound 2]	performed similarly to R848; also recorded: potent inducer of myeloid cell activation	specific for TLR7 activity	activated murine TLR7	specific for TLR7 activity						
Rituximab-Pam2CSK4 Boltbody					superior	superior	superior	superior	superior	
Rituximab-Pam3CSK4 Boltbody					superior	superior	superior	superior	superior	superior
